Measured values published in PubChem BioAssay (NCI).
Values joined by “and” are separate entries in the source; they are usually repeats but may differ in a detail not shown here. Identical values can stand only once.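 Cells were grown in 96-well plates and exposed to each compound for 48 hours at five concentrations; endpoints were interpolated linearly between bracketing concentrations, or set to the highest concentration if not reached. GI50: concentration for 50% inhibition of growth. The concentration for full growth arrest is given as TGI.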

Columns and labels:
Test in all cases: NCI anticancer screen, dose series, 48 h
LOX IMVI melanoma = system: LOX IMVI melanoma
CAKI-1 renal = system: CAKI-1 renal
RPMI-8226 leukemia = system: RPMI-8226 leukemia
A498 renal = system: A498 renal
NCI-H522 lung = system: NCI-H522 lung
NCI/ADR-RES ovarian = system: NCI/ADR-RES ovarian
HOP-92 NSCLC = system: HOP-92 NSCLC
SK-MEL-5 melanoma = system: SK-MEL-5 melanoma
NCI-H226 lung = system: NCI-H226 lung
HCC-2998 colon = system: HCC-2998 colon

SMILES	TGI (LOX IMVI melanoma)	TGI (CAKI-1 renal)	TGI (RPMI-8226 leukemia)	GI50 (A498 renal)	TGI (A498 renal)	TGI (NCI-H522 lung)	GI50 (NCI/ADR-RES ovarian)	TGI (NCI/ADR-RES ovarian)	TGI (HOP-92 NSCLC)	TGI (SK-MEL-5 melanoma)	TGI (NCI-H226 lung)	TGI (HCC-2998 colon)	GI50 (LOX IMVI melanoma)	GI50 (CAKI-1 renal)	GI50 (RPMI-8226 leukemia)	GI50 (NCI-H522 lung)	GI50 (HOP-92 NSCLC)	GI50 (SK-MEL-5 melanoma)	GI50 (NCI-H226 lung)	GI50 (HCC-2998 colon)
O=c1c2ccccc2n2n1CC(O)C2 (stereo not given)	> 100 µM	> 100 µM	> 100 µM	> 100 µM	> 100 µM	> 100 µM	> 100 µM	> 100 µM	> 100 µM	> 100 µM	> 100 µM	> 100 µM	–	–	–	–	–	–	–	–
Cc1cnc(/C=N\NC(N)=S)c2cccc(N)c12	> 100 µM	> 57 µM	> 100 µM	2.04 µM	> 100 µM	> 100 µM	3.53 µM	> 100 µM and 17.8 µM	> 100 µM	–	> 100 µM	> 100 µM	2.32 µM	2.51 µM	2.1 µM	3.87 µM	2.07 µM	1.25 µM	2.39 µM	–
O=C1c2ccccc2C(=Cc2ccccc2)c2ccccc21	10.7 µM	5.49 µM	14.6 µM	2.3 µM	9.52 µM	5.63 µM	1.6 µM	6.62 µM	5.17 µM	10.9 µM	20.4 µM	10.1 µM	2.32 µM	1.54 µM	3 µM	1.55 µM	1.45 µM	2.77 µM	4.99 µM	2.69 µM
COc1cc2nccc(Oc3ccc(NC(=O)C4(C(=O)Nc5ccc(F)cc5)CC4)cc3)c2cc1Oc1ccc(N)cn1	3.49 µM	5.48 µM	78.6 µM	1.6 µM	4.33 µM	12.7 µM	3.83 µM	> 100 µM	3.03 µM	4.43 µM	9.07 µM	7.49 µM	1.75 µM	1.85 µM	3.99 µM	2.25 µM	0.0492 µM	2.03 µM	1.5 µM	2.58 µM
CC(=O)c1cc2c(cc1Nc1c3ccccc3nc3occ(Cl)c13)OCO2	> 100 µM	> 100 µM	0.139 µM	0.105 µM	0.373 µM	1.46 µM	0.236 µM	1.47 µM	> 100 µM	0.376 µM	–	0.37 µM	0.435 µM	0.085 µM	0.0539 µM	0.0402 µM	12.7 µM	0.103 µM	3.42 µM	0.187 µM
CC(=O)O[C@H](C[C@H](C(C)C)N(C)C(=O)[C@@H](NC(=O)[C@H]1CCCCN1C)C(C)C)c1nc(C(=O)N[C@@H](Cc2ccccc2)C[C@H](C)C(=O)O)c(C(C)C)s1	10.5 µM	> 27.4 µM	> 22.6 µM	< 0.00333 µM	< 0.00333 µM	0.499 µM	0.0691 µM	–	> 15.5 µM	0.00641 µM	0.382 µM	2 µM	< 0.00333 µM	< 0.00333 µM	< 0.00333 µM	< 0.00333 µM	0.00521 µM	< 0.00333 µM	0.00335 µM	< 0.00333 µM
CCOC(=O)C1=C(C)NC2SC(=O)/C(=C\c3ccccc3O)N2C1c1ccccc1 (stereo not given)	34 µM	> 100 µM	53.6 µM	11.1 µM	33.9 µM	76.3 µM	23.3 µM	60.3 µM	43.2 µM	32.5 µM	90.4 µM	64.8 µM	18.4 µM	36.8 µM	18.6 µM	26.2 µM	20.8 µM	17.2 µM	29 µM	26.5 µM
COc1ccc2c(c1)C(=O)C(=O)c1cc(O)c(OC)c(OC)c1-2	1.83 µM and 3.16 µM	1.67 µM and 3.15 µM	2.67 µM and 3.81 µM	5.07 µM	10.5 µM and 12.9 µM	1.74 µM and 3.55 µM	1.84 µM	2.41 µM and 5.22 µM	1.79 µM and 3.19 µM	1.53 µM and 3.07 µM	14.3 µM and 3.9 µM	10.5 µM and 14.1 µM	1.48 µM	1.77 µM	1.56 µM	1.92 µM	1.7 µM	1.68 µM	1.95 µM	–
O=C(CF)N(O)c1ccc(/C=C/c2ccccc2)cc1	> 100 µM	2.85 µM	> 100 µM	0.694 µM	2.27 µM	> 100 µM	2.52 µM	> 100 µM	35.7 µM	> 100 µM	3.24 µM	7.69 µM	2.53 µM	0.609 µM	21.3 µM	12.8 µM	3.97 µM	14.4 µM	0.77 µM	1.64 µM
O=C(Nc1cccc(Oc2nnc(Cl)c3ccccc23)c1)Nc1ccc(Cl)c(C(F)(F)F)c1	2.82 µM	6.5 µM	1.51 µM	0.275 µM	1.7 µM	3.46 µM	0.926 µM	9.95 µM	1.96 µM	3.25 µM	7.2 µM	3.48 µM	0.68 µM	0.832 µM	0.336 µM	0.499 µM	0.352 µM	0.985 µM	2.14 µM	0.872 µM
CC(C)(C)c1[nH]cnc1/C=c1\[nH]c(=O)/c(=C/c2ccccc2)[nH]c1=O	17.7 µM	32.7 µM	13.2 µM	< 0.01 µM	0.51 µM	0.159 µM	< 0.01 µM	> 100 µM	9.11 µM	0.137 µM	3.69 µM	33.1 µM	< 0.0121 µM	< 0.01 µM	< 0.0176 µM	< 0.01 µM	< 0.0118 µM	< 0.0133 µM	0.0275 µM	0.0307 µM
CC(=O)OCC(=O)O[C@@H]1C[C@]2(C(C)C)O[C@@]1(C)[C@@H]1CC[C@@H](C)[C@H]1[C@@H]2OC(=O)/C=C/c1ccccc1	32.7 µM	0.125 µM	> 100 µM	< 0.0399 µM	0.472 µM	47.8 µM	0.143 µM	27.5 µM	22.9 µM	31.5 µM	37.1 µM	75.3 µM	15.5 µM	0.0244 µM	18.8 µM	17.9 µM	8.81 µM	15.5 µM	10.6 µM	20 µM
Oc1c(CN2CCCC2)cc(COCc2ccc(Br)cc2)c2cccnc12	1.54 µM	2.28 µM	4.02 µM	1.62 µM	5.27 µM	1.17 µM	0.0707 µM	1.13 µM	7.56 µM	1.3 µM	2.96 µM	3.61 µM	0.37 µM	0.106 µM	1.12 µM	0.297 µM	1.93 µM	0.329 µM	1.05 µM	0.901 µM
O=C(O)CCC(=O)c1ccc2ccc3cccc4ccc1c2c34	> 100 µM	> 100 µM	> 100 µM	–	> 100 µM	> 100 µM	–	> 100 µM	> 100 µM	> 100 µM	> 100 µM	> 100 µM	–	–	–	–	–	–	–	–
CN(C)c1ncnc2c1nnn2C1OC(CO)C(O)C1O (stereo not given)	> 100 µM	8.77 µM	1.1 µM	0.442 µM	> 100 µM	1.41 µM	0.233 µM	> 100 µM	1.23 µM	5.7 µM	> 100 µM	–	0.156 µM	0.066 µM	0.16 µM	0.272 µM	0.186 µM	0.737 µM	4.49 µM	0.325 µM
C/C1=C/C2=CC(C)C[C@@H]2C(=O)[C@]2(C)C(=O)CC(C)(C)[C@H]2CC1=O (stereo not given in full)	> 50 µM	> 50 µM	> 50 µM	–	> 50 µM	> 50 µM	–	> 50 µM	> 50 µM	> 50 µM	> 50 µM	> 50 µM	–	–	–	–	–	–	–	–
COc1ccc(C2=NN(C(=O)c3cc(OC)c(OC)c(OC)c3)C(c3ccc(Cl)cc3)C2)cc1OC (stereo not given)	> 100 µM	> 54.1 µM	> 100 µM	0.608 µM	8.3 µM	> 24.3 µM	1.05 µM	–	5.41 µM	15.6 µM	> 57.7 µM	> 100 µM	3.63 µM	1.14 µM	0.535 µM	1.48 µM	–	0.549 µM	–	7.61 µM
COC(=O)[C@]12CC[C@@H](C)[C@H](C)[C@@H]1C1=CC[C@@H]3[C@@]4(C)C(C=O)=C[C@@](C)(COC(=O)c5ccco5)[C@@H]4C(=O)C[C@@]3(C)[C@]1(C)CC2	31.2 µM	> 100 µM	6.68 µM	12.1 µM	94.7 µM	> 100 µM	4.82 µM	> 100 µM	91 µM	1.45 µM	12.6 µM	> 100 µM	4.42 µM	3.77 µM	2.06 µM	7.63 µM	1.37 µM	0.294 µM	2.63 µM	6.22 µM
CC/C=C\C/C=C\C[C@H](O)C/C=C1/C(=O)C=C[C@@H]1C/C=C\CCCC(=O)O	3.74 µM	21.4 µM	12.1 µM	16 µM	31.1 µM	3.78 µM	3.24 µM	> 100 µM	20.4 µM	5.98 µM	5.86 µM	4.28 µM	1.74 µM	6.56 µM	2.63 µM	1.71 µM	7.26 µM	2.42 µM	2.57 µM	2.21 µM
CNC(=O)c1ccc2cc(C3(O)CCn4cncc43)ccc2c1 (stereo not given)	> 100 µM	> 100 µM	> 100 µM	> 100 µM	> 100 µM	> 100 µM	> 100 µM	> 100 µM	> 100 µM	> 100 µM	> 100 µM	> 100 µM	> 100 µM	> 100 µM	> 100 µM	> 100 µM	> 100 µM	> 100 µM	> 100 µM	> 100 µM
CC(=O)c1c(C)n(C)c2c1nnc1ccccc12	> 100 µM	> 100 µM	> 100 µM	–	> 100 µM	> 100 µM	–	> 100 µM	> 100 µM	> 100 µM	> 100 µM	> 100 µM	–	–	–	–	–	–	–	–
O=C(CN1CCN(c2ccc(Cl)cc2)CC1)N1CCN(c2nnc(-c3ccc(Cl)cc3)c(-c3ccc(Cl)cc3)n2)CC1	76.4 µM	> 100 µM	> 100 µM	43.1 µM	> 100 µM	46.9 µM	34 µM	> 100 µM	60.4 µM	> 100 µM	> 100 µM	> 100 µM	14.5 µM	52.6 µM	> 100 µM	18.2 µM	22.4 µM	14.6 µM	45.7 µM	> 100 µM
COC1CCC(O)C(/C=C/[N+](=O)[O-])C1 (stereo not given)	3.05 µM	38.4 µM	4.2 µM	–	14.2 µM	23.2 µM	–	75.1 µM	26.6 µM	14.9 µM	5.96 µM	3.14 µM	–	–	–	–	–	–	–	–
O=P(NC12CC3CC(CC(C3)C1)C2)(N1CC1)N1CC1	> 100 µM	> 100 µM	> 100 µM	–	> 100 µM	> 100 µM	–	> 100 µM	> 100 µM	> 100 µM	> 94.8 µM	> 100 µM	–	–	–	–	–	–	–	–
CN1CCN(c2ccc3nc(-c4c(N)c5c(F)cccc5[nH]c4=O)[nH]c3c2)CC1	1.86 µM and 1.48 µM and 2.14 µM	1.57 µM and > 10 µM and 12.5 µM	3.74 µM and > 2.77 µM and 4.53 µM	0.224 µM and 0.144 µM and 0.135 µM	–	2.87 µM and > 2.3 µM and 11.7 µM	1.77 µM and 2.64 µM and 2.47 µM	7.18 µM and > 10 µM and 13 µM	4.56 µM and > 2.93 µM and 5.82 µM	2.64 µM and 1.29 µM and 3.16 µM	8.36 µM and > 6.97 µM and 17.6 µM	5.24 µM and > 4.09 µM and 6.58 µM	0.478 µM and 0.41 µM and 0.769 µM	0.213 µM and 0.282 µM and 0.387 µM	1.17 µM and 0.909 µM and 1.57 µM	0.999 µM and 0.398 µM and 2.29 µM	0.621 µM and 0.422 µM and 0.645 µM	1.33 µM and 0.604 µM and 1.72 µM	0.525 µM and 0.476 µM and 0.537 µM	1.33 µM and 0.867 µM and 1.36 µM
CCOC(=O)c1c2c(n(Cc3ccccc3)c1C)-c1ccccc1C(=O)C2=O	24.6 µM	36.6 µM	62.2 µM	24.6 µM	60 µM	35.5 µM	9.42 µM	27.4 µM	21.6 µM	41.2 µM	–	19.6 µM	11.8 µM	17.2 µM	13.2 µM	14.8 µM	6.54 µM	18 µM	–	6.35 µM
